The text below walks through data of patent US10167479B2, “Agrobacterium strains for plant transformation” (priority 2009, dated 2019).

For one data set, the system named is Embryogenic calli. Put plainly: X-gluc staining of calli immediately after 53 hours co-culture. As to conditions: AS 200 μM, pCambia1305.1 bar. The format is cell-based, Jatropha curcas. The source says:
The calli were immediately stained with X-gluc and photographed.
The calli were immediately stained with X-gluc.

Data set [1] deals with Somatic embryogenic calli from 4 different cell lines. As to conditions: DPI at about 10 μM; AGL2(pCambia1305.1); LMP Bd2 embedding; two months selection; average of four cell lines.
Procedure: The co-culture medium JIM2 was supplemented with either 1 μM diphenyl iodonium (DPI), 5 μM DPI or a mixture of antioxidants with a final concentration of 1 mM Na-thiosulfate, 8.8 mM L-cysteine and 1 mM dithiothreitol (DTT). Hygromycin resistant somatic embryos were scored after two months selection. The number of somatic embryos derived from co-culture with DPI-free JIM2 (CK) was set at 100 in each cell line and the relative number of somatic embryos in other co-culture conditions was calculated by dividing the actual number by that of CK.
Somatic embryogenic calli from 4 different cell lines were co-cultured with AGL2(pCambia1305.1) and selection was done by the LMP Bd2 embedding method. The co-culture medium JIM2 was supplemented with either 1 μM DPI, 5 μM DPI or a mixture of antioxidants with a final concentration of 1 mM Na-thiosulfate, 8.8 mM L-cysteine and 1 mM DTT. Hygromycin resistant somatic embryos were scored after two months selection. In transformation using each cell line, the number of somatic embryos derived from co-culture with DPI-free JIM2 (CK) was set at 100 and relative number of somatic embryos in other co-culture conditions was calculated by dividing the actual number by that of CK.
For data set [2], the system named is Soybean embryogenic suspension culture (derived Peking 18). As to conditions: 1 μM DPI in co-culture medium; pre-induced AGL1(pCambia1305.1); 2.5 day at 24° C.; 10 mg/l hygromycin selection; control about 40%. As for the experimental part: Soybean embryogenic suspension culture (derived Peking 18) was co-cultured for 2.5 day at 24° C. with pre-induced AGL1(pCambia1305.1) on nylon membrane, which was placed on top of solid medium (1M with 20 mg/l 2,4-D and B5 vitamins) that was supplemented with 1 μM DPI or 1 mM Na-thiosulfate, 8.8 mM L-cysteine and 1 mM DTT. After selection with 10 mg/l hygromycin, the calli clumps were stained with X-gluc.

The test system of data set [3] is Jatropha curcas somatic embryos / somatic embryogenic calli. As to conditions: TE7, AGL1 pST2eGFP.
Procedure: Embryogenic cell lines, for example, JS4 cell line, which was derived from a zygotic embryo of an Indonesian Jatropha curcas collection, were subcultured every week by transferring about 3 g of the cell mass to 20 ml J20P medium. 3-5 days after subculture, the embryogenic calli cell mass was collected.
Co-culture plates were made by pouring about 30 ml JIM2H solid medium to each 90 mm Petri dish. Alternatively, 3-4 sheets of cellulose filter paper can be soaked with JIM2H liquid medium before placing into a 90 mm Petri dish. One sheet of 82 mm Hybond N membrane was over-laid to the medium-soaked cellulose filter paper or solid JIM2H medium. About 0.75 g embryogenic calli was mixed with 200 ul Agrobacterium cells on the membrane. After one hour incubation at room temperature, excess liquid medium containing the Agrobacterium cells was removed. The plates were capped, sealed with 3M tape and incubated at 24° C. with dim light for 2-3 days.
Fresh colonies of AGL2 or AGL3 harboring pCambia1305.1 were inoculated into 30 ml LB medium that had been supplemented with 25 mg/l rifampicin and 50 mg/l kanamycin. Cells were cultured at 28° C., 200-230 RPM until OD600 reached 0.8-2.0. […]
In about 3 weeks, the embryos were transferred to G35-2 medium with 10 mg/l hygromycin. […] Rooted plantlets were ready for planting in soil in 2-3 weeks. […]

SMILES strings stand for the structures.

In the case of `COc1cc(C(C)=O)cc(OC)c1O` [AS, acetosyringone], the “Effect of AS on transformation efficiency in AGL2” value in the data set with Embryogenic calli was “further boosted transformation efficiency”. For `c1ccc2c(c1)[I+]c1ccccc1-2` [DPI, diphenylene iodonium], the “Improvement of transformation efficiency (relative number of hygromycin resistant somatic embryos vs DPI-free JIM2)” value in data set [1] is “more than 2 folds”. Also, the “calli clumps showing GUS staining” value in data set [2] is given as “more than 80%”. In addition, the “Effect of DPI on explants” value in data set [3] (liquid medium SE) was “DPI caused no damage on”. For `NC[C@H]1O[C@H](O[C@H]2[C@H](O)[C@@H](O[C@H]3O[C@H](CO)[C@@H](O)[C@H](N)[C@H]3O)[C@H](N)C[C@@H]2N)[C@H](O)[C@@H](O)[C@@H]1O` [Kan, kanamycin], the “Kan selection concentration found OK” value in data set [3] (Kan 0, 25, 50 and 80 mg/l tested, SE on solid medium) was 50-80 mg/l OK, heavy.
